Measured values as given in PMC6704710, “Preclinical evaluation of 3D185, a novel potent inhibitor of FGFR1/2/3 and CSF-1R, in FGFR-dependent and macrophage-dominant cancer models” (Journal of Experimental & Clinical Cancer Research : CR, 2019).

How the values were obtained:
Assay in all cases: Eurofins kinase panel
Type in all cases: biochemical
Conditions in all cases: read-out: Inhibition rate (%)
[1] = biological target: T1, Plk1(h) (Homo sapiens, UniProt P53350)
T1 construct: purchased Eurofins (KinaseProfiler)
T1 sequence (P53350 whole entry): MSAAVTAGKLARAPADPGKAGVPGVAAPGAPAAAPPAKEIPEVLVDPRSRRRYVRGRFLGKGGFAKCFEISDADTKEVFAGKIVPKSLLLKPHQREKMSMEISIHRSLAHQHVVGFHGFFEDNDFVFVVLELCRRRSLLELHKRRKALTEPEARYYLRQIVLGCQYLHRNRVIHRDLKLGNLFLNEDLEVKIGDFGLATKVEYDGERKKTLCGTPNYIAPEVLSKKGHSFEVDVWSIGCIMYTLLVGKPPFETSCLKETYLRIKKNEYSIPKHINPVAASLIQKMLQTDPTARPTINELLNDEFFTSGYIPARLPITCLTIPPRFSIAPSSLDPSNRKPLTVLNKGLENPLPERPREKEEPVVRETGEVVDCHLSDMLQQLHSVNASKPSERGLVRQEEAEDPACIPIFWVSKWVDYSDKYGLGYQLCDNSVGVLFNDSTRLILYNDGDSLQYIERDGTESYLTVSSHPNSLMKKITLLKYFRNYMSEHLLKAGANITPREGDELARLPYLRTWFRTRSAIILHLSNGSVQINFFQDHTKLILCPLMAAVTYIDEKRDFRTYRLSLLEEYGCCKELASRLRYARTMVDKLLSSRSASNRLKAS

[2] = biological target: T2, TAO2(h) (Homo sapiens, UniProt Q9UL54)
T2 construct: purchased Eurofins (KinaseProfiler)
T2 sequence (Q9UL54 1-1235): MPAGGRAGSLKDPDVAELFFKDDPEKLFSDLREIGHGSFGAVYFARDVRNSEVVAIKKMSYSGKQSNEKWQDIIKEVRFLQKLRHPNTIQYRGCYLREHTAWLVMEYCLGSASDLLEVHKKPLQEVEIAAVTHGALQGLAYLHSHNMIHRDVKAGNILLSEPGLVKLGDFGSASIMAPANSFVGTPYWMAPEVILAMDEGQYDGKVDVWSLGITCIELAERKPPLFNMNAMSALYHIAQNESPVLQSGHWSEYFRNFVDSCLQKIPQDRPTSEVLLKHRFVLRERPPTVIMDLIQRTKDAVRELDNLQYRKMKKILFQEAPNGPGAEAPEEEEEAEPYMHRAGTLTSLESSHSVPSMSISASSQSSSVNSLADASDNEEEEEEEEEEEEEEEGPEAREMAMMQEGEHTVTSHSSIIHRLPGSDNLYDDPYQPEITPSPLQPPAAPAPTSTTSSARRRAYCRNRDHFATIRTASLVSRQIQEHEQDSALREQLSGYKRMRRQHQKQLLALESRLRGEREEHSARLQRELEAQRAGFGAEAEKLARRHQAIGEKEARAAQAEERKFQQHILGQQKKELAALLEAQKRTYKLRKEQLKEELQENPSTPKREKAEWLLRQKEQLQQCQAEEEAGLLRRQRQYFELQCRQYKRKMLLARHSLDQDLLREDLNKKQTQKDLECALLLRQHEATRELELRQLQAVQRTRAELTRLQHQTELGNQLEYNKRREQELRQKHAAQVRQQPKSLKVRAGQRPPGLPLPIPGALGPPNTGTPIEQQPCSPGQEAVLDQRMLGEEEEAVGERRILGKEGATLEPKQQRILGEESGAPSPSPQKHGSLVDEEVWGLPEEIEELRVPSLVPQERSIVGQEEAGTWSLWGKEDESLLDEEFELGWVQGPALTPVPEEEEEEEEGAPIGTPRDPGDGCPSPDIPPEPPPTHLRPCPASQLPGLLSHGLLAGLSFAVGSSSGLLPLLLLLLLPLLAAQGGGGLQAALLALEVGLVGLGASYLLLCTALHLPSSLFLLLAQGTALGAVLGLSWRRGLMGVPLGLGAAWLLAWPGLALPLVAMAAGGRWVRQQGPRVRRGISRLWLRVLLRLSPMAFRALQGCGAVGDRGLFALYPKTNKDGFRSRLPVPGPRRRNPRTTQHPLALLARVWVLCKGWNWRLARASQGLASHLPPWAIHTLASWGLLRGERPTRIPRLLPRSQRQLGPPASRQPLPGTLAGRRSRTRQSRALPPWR

[3] = biological target: T3, MKK7β(h) (Homo sapiens, UniProt O14733)
T3 construct: purchased Eurofins (KinaseProfiler)
T3 sequence (O14733 1-419): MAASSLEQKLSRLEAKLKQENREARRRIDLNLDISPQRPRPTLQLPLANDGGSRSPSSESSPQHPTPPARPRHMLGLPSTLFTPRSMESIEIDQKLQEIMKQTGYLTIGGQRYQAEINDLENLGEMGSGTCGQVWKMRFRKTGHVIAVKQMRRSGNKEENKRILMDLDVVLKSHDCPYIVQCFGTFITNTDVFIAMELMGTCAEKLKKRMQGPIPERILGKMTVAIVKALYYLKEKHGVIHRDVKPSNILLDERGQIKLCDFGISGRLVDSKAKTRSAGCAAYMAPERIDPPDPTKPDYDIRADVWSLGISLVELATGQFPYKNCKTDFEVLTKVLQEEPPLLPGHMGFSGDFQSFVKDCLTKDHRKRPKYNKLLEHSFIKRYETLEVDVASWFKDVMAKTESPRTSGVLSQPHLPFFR

[4] = biological target: T4, TAF1L(h) (Homo sapiens, UniProt Q8IZX4)
T4 construct: purchased Eurofins (KinaseProfiler)
T4 sequence (Q8IZX4 whole entry): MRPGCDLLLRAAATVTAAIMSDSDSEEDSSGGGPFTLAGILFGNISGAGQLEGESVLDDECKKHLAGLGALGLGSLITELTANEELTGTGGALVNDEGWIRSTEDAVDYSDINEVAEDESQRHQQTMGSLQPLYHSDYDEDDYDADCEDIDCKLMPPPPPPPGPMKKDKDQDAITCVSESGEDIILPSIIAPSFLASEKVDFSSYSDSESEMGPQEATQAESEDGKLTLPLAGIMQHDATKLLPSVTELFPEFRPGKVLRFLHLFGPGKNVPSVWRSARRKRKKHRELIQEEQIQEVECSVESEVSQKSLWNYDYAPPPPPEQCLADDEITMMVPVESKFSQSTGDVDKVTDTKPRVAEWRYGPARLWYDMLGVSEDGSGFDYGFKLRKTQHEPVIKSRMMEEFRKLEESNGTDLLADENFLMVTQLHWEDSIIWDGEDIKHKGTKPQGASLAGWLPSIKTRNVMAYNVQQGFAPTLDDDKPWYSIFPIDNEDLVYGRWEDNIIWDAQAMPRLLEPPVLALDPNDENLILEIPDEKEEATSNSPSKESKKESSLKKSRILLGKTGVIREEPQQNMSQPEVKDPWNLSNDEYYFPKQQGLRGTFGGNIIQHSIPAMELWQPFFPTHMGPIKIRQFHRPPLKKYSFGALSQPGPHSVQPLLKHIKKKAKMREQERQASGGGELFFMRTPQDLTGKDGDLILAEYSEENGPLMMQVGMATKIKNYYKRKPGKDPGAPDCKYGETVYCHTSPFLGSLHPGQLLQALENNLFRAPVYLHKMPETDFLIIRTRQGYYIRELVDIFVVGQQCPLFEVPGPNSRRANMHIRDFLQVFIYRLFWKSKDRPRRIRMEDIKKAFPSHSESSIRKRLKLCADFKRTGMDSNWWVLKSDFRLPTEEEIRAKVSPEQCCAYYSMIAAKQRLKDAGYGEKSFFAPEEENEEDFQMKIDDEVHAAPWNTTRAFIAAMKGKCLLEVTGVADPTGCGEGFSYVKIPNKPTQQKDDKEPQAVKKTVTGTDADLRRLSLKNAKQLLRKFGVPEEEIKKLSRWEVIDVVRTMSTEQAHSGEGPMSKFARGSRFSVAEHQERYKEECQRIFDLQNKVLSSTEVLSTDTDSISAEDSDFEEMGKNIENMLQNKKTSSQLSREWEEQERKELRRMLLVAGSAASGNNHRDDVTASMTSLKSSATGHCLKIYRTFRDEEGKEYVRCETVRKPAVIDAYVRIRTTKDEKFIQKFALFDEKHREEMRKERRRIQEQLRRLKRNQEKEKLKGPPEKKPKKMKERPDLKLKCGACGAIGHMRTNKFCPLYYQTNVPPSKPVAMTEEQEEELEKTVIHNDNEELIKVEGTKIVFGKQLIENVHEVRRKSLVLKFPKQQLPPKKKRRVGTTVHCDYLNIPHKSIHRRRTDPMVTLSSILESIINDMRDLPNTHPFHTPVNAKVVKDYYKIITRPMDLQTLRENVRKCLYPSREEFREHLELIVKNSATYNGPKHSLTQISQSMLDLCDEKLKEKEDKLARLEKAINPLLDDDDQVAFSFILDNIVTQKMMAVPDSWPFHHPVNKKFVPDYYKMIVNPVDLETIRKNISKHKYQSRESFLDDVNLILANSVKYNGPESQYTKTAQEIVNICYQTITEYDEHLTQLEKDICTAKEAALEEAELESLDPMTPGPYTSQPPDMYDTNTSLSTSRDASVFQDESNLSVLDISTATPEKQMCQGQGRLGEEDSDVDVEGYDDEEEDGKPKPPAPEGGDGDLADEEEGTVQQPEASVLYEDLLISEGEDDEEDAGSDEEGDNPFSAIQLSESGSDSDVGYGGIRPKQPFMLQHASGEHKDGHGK

## COc1cc(OC)c(Cl)c(-c2ccc3c(NC(=O)c4ccc(N5CCNC(C)(C)C5)cc4)n[nH]c3n2)c1Cl [3D185]
[1]; 10 nM
  inhibition at 0.01 µM: -6%
[1]; 100 nM
  inhibition at 0.1 µM: 2%
[1]; 1000 nM
  inhibition at 1 µM: -4%
[2]; 10 nM
  inhibition at 0.01 µM: 12%
[2]; 100 nM
  inhibition at 0.1 µM: 28%
[2]; 1000 nM
  inhibition at 1 µM: 66%
[3]; 10 nM
  inhibition at 0.01 µM: 9%
[3]; 100 nM
  inhibition at 0.1 µM: -2%
[3]; 1000 nM
  inhibition at 1 µM: 12%
[4]; 10 nM
  inhibition at 0.01 µM: -4%
[4]; 100 nM
  inhibition at 0.1 µM: -9%
[4]; 1000 nM
  inhibition at 1 µM: -9%
